Test results as given in US6566352B1, “1 α-hydroxy-2-methylene-19-nor-pregnacalciferol and its uses” (Wisconsin Alumni Research Foudation, priority 2002, dated 2003).
“Also recorded” adds a separate entry of the source.

Tests used:
[1] = serum calcium response in vitamin D-sufficient normal female rats on normal calcium diet; format: in vivo, rat; conditions: for serum calcium (hypercalcemia): 5000 pmol/day for 7 days, oral or intraperitoneal, normal female rats, 4 hours after last dose
Description: Serum calcium response in vitamin D-sufficient animals on a normal calcium diet. […] The doses were administered to two separate groups of animals by either the oral or intraperitoneal route, and serum calcium levels were assessed 4 hours after the last dose.

[2] = system: calcium mobilization from bone; experiment: bone calcium mobilization in vitamin D-deficient rats on low calcium diet; format: in vivo, rat; conditions: for bone calcium mobilization activity: in words, no dose named
Description: Calcium mobilization from bone and intestinal calcium absorption in vitamin D-deficient animals. Using vitamin D-deficient rats on a low calcium diet (0.02%), the activities of these compounds in intestine and bone were tested.

HL-60 cells = experiment: HL-60 cell differentiation into monocytes; format: cell-based; conditions: for EC50: HL60 cells (FIG. 3)
Description: The differentiation of HL-60 promyelocytic into monocytes was determined as described by Ostrem et al (J. Biol. Chem. 262, 14164-14171, 1987).
VDR binding and HL60 cell differentiation.

[3] = biological target: T1, full-length recombinant rat vitamin D receptor (Rattus norvegicus, UniProt P13053); experiment: competition with [3H]-1,25(OH)2D3 for binding to vitamin D receptor; conditions: full-length recombinant rat vitamin D receptor (FIG. 2)
T1 construct: the full-length recombinant rat vitamin D receptor
T1 sequence (P13053 1-423): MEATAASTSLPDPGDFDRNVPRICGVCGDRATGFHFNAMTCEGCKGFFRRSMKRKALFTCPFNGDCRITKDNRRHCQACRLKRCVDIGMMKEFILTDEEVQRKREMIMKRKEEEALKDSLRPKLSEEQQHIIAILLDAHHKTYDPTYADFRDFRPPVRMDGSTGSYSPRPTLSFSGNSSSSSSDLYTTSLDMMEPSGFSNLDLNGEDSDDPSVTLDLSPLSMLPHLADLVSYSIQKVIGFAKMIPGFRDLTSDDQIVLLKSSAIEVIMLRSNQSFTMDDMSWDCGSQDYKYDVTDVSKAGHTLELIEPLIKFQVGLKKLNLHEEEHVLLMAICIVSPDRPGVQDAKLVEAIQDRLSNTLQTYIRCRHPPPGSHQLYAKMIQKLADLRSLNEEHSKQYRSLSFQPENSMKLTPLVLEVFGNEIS

[4] = system: intestinal calcium transport; experiment: intestinal calcium transport, everted gut sac method, vitamin D-deficient rats; format: in vivo, rat; conditions: for intestinal calcium transport activity: vitamin D-deficient rats, in words, no dose named
Description: Intestinal calcium transport was evaluated in the same groups of animals using the everted gut sac method (FIG. 5).

[5] = system: porcine intestinal vitamin D receptor; experiment: binding to porcine intestinal vitamin D receptor; conditions: compared to standard 1,25-(OH)2D3 (FIG. 2)
Description: The battery of in vitro and in vivo assays described in […] et al (J. Med.

SMILES	serum calcium (hypercalcemia) [1]	mobilization of bone calcium ([2]; 260 pmol/day for 7 days)	EC50 (HL-60 cells)	Ki [3]	intestinal calcium transport activity [4]	serum calcium levels (bone calcium mobilization) ([2]; low calcium diet (0.02%), all dosages)	intestinal calcium transport ([4]; 260 pmol/day)	mobilization of bone calcium ([2]; 1300 pmol/day (5-fold))	bone calcium mobilization activity ([2]; low calcium diet (0.02%))	intestinal calcium transport ([4]; 1300 pmol/day (5-fold higher))	intestinal calcium transport ([4]; doses higher than 1300 pmol/day)	calcemic activity from serum calcium after chronic doses ([1]; rats, chronic doses (FIG. 6), in words)	binding to the porcine receptor as compared to 1,25-(OH)2D3 [5]	EC50 (HL-60 cells; Homo sapiens, HL-60)	potency on HL-60 differentiation compared to 1,25(OH)2D3 (HL-60 cells; in words, FIG. 3)
C[C@H](CCCC(C)(C)O)[C@H]1CC[C@H]2/C(=C/C=C3C[C@@H](O)C[C@H](O)C3)CCC[C@]12C [1,25(OH)2 19-nor-D3, 1α,25-dihydroxy-19-nor-vitamin D3, reference compound]	produced frank hypercalcemia	did not result in mobilization of bone calcium	4 nM	0.2 nM	devoid of intestinal calcium transport activity										
C=C1/C(=C\C=C2/CCC[C@]3(C)[C@@H]([C@H](C)CCCC(C)(C)O)CC[C@@H]23)C[C@@H](O)C[C@@H]1O [1,25(OH)2D3, 1α,25-dihydroxyvitamin D3, reference compound]			5 nM			increased serum calcium levels at all dosages	promotes a significant increase								
C=C1C(O)CC(=CC=C2CCCC3(C)C2CCC3C(C)C)CC1O (stereo not drawn) [2-MP, 1α-hydroxy-2-methylene-19-nor-homopregnacalciferol]		did not result in mobilization of bone calcium	6 nM	0.3 nM			calcium transport activity equivalent to 1,25(OH)2D3	without effect	little, if any, activity	calcium transport activity equivalent to 1,25(OH)2D3	decreased this activity				
C=C1[C@H](O)CC(=C/C=C2\CCC[C@]3(C)[C@@H]([C@@H](C)CC)CC[C@@H]23)C[C@H]1O [2-MbisP, (20S)-1α-hydroxy-2-methylene-19-nor-bishomopregnacalciferol]		did not result in mobilization of bone calcium	7 nM	0.6 nM			do not promote intestinal calcium transport	without effect	little, if any, activity	do not promote intestinal calcium transport					
C=C1[C@H](O)CC(=C/C=C2\CCC[C@]3(C)C(CC)CCC23)C[C@H]1O (stereo partly drawn) [2-Mpregna, 1α-hydroxy-2-methylene-19-nor-pregnacalciferol]	no increase in serum calcium	did not result in mobilization of bone calcium		0.3 nM	very little activity		do not promote intestinal calcium transport	without effect	very little bone calcium mobilization activity; also recorded: little, if any, activity	do not promote intestinal calcium transport		very little calcemic activity	bound equally well	17 nM	almost as potent as 1,25(OH)2D3
